Assay results: US5487990A (The General Hospital Corporation, priority 1992, dated 1996)

Columns and labels:
[1] = test system: mitochondrial enzyme from hamster brown fat; settings: cited from earlier work
[2] = target: T1, Acetyl-CoA Hydrolase from S. cerevisiae (Saccharomyces cerevisiae, UniProt P32316); test: Substrate specificity, colorimetric assay (DNTB, A412); format: biochemical; settings: read-out: Relative Activity (%)
T1 sequence (P32316 1-526): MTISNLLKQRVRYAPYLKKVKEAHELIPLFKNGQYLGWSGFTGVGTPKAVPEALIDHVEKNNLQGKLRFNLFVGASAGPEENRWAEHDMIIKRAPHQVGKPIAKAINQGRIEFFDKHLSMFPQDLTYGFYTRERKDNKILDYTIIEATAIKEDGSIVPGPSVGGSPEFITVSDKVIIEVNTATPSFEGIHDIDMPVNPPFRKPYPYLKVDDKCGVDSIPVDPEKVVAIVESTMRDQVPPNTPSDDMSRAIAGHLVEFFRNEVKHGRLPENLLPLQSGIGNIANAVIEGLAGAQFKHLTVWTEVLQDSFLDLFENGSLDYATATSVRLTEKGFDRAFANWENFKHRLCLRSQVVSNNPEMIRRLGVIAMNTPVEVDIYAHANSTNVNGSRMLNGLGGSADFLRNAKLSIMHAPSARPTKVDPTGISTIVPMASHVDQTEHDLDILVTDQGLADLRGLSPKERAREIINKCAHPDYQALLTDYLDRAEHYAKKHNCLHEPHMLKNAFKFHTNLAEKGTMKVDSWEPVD

[3] = target: T1, Acetyl-CoA Hydrolase from S. cerevisiae; test: biochemical
Experimental: The assay mixture was incubated at 30° C. for 0.30 s, 1 min, 2 min, 3 min, 4 min, and 5 min. The reaction was stopped by adding 20 μl of 10 M acetic acid. The sample was evaporated by N2 stream at 30° C. to dryness in a fume hood, dissolved in 100 μl H2 O, and transferred to a scintillation vial containing 10 ml Ready-Solv EP scintillation cocktail. The sample tube was washed twice with 100 μl H2 O, each wash was transferred to the scintillation vial, and the radioactivity was determined by scintillation counting for 1 min.
nucleotides and divalent cations in 100 mM potassium phosphate, pH 7.4.
The enzyme activity was determined under standard radioactive assay
conditions using ACTH (1-24) (N = 3), as described in the Examples.
acylCoA in 100 mM phosphate buffer, pH 7.4.

[4] = substrate: CC(=O)SCCNC(=O)CCNC(=O)[C@H](O)C(C)(C)COP(=O)(O)OP(=O)(O)OC[C@H]1O[C@@H](n2cnc3c(N)ncnc32)[C@H](O)[C@@H]1OP(=O)(O)O; test: purified protein, by the assay type; settings: other: substrate acetyl-CoA; Lineweaver-Burk plot; pH 7.4; 30.0 °C
[5] = pH 7.4, read-out: Enzyme Activity (%)

CC(=O)SCCNC(=O)CCNC(=O)[C@H](O)C(C)(C)COP(=O)(O)OP(=O)(O)OC[C@H]1O[C@@H](n2cnc3c(N)ncnc32)[C@H](O)[C@@H]1OP(=O)(O)O [Acetyl-CoA, acetyl coenzyme A]
Km [1]: 51 µM
activity at 250 µM [2]: 100%
effect on yeast enzyme activity (in words) [3]: inhibited most effectively
remaining activity at 100 µM [3, 5]: 66%
remaining activity at 1000 µM [3, 5]: 28%
remaining activity at 5000 µM [3, 5]: 5%
Km ([3]; substrate acetyl-CoA, Lineweaver-Burk plot, read-out: apparent Km): 62 µM

B1: Acetyl-CoA Hydrolase from S. cerevisiae (Saccharomyces cerevisiae S288C) (protein)
chain: MTISNLLKQRVRYAPYLKKVKEAHELIPLFKNGQYLGWSGFTGVGTPKAVPEALIDHVEKNNLQGKLRFNLFVGASAGPEENRWAEHDMIIKRAPHQVGKPIAKAINQGRIEFFDKHLSMFPQDLTYGFYTRERKDNKILDYTIIEATAIKEDGSIVPGPSVGGSPEFITVSDKVIIEVNTATPSFEGIHDIDMPVNPPFRKPYPYLKVDDKCGVDSIPVDPEKVVAIVESTMRDQVPPNTPSDDMSRAIAGHLVEFFRNEVKHGRLPENLLPLQSGIGNIANAVIEGLAGAQFKHLTVWTEVLQDSFLDLFENGSLDYATATSVRLTEKGFDRAFANWENFKHRLCLRSQVVSNNPEMIRRLGVIAMNTPVEVDIYAHANSTNVNGSRMLNGLGGSADFLRNAKLSIMHAPSARPTKVDPTGISTIVPMASHVDQTEHDLDILVTDQGLADLRGLSPKERAREIINKCAHPDYQALLTDYLDRAEHYAKKHNCLHEPHMLKNAFKFHTNLAEKGTMKVDSWEPVD
Km [4]: 62 µM
